# According to patent publication US12221445B2, “Crystalline salts of 5-methyl-(6S)-tetrahydrofolic acid and amino ethyl esters” (MERCK PATENT GMBH, priority 2018, dated 2025):
# Structures can show the parent of a compound that is named as a salt.
# What was measured:
# [1] = Kinetic solubility in water (one minute agitation, gravimetric evaluation); conditions: for amount dissolved within one minute in 2.00 ml water: according to Example 6; for kinetic solubility (mg of 5-methyl-(6S)-tetrahydrofolic acid per mL): purified/de-ionized water, room temperature, agitated one minute, expressed as 5-methyl-(6S)-tetrahydrofolic acid
# Method: 42.3 mg of the anhydrous form of the crystalline salt of 5-methyl-(6S)-tetrahydrofolic acid and L-phenylalanine ethyl ester according to Example 4 was weighed into a 7 mL glass vial with a screw cap. 2.00 mL of purified/de-ionized water (for instance water for chromatography) was added to the solid using an adjustable volumetric pipette. The mixture was vigorously agitated at room temperature for one minute.
# The solution was filtered by centrifugal filtration and 1.50 mL of the aqueous solution was transferred into a tared glass vial (about 10 mL volume). The water was evaporated in an air dryer at 40° C. for about 15 hours, then at 50° C. for about eight hours, subsequently drying was completed at 50° C. under vacuum (10 to 20 mbar) for about 13 hours. The solubility was determined by gravimetric evaluation of the solid residue.
# 2.00 mL of purified/de-ionized water (for instance water for chromatography) was added to the solid using an adjustable volumetric pipette. The mixture was vigorously agitated at room temperature for one minute. […] The suspension was filtered by centrifugal filtration and 1.50 mL of the aqueous solution was transferred into a tared glass vial (about 10 mL volume). The water was evaporated in an air dryer at 40° C. for about 15 hours, then at 50° C. for about eight hours, subsequently drying was completed at 50° C. under vacuum (10 to 20 mbar) for about 13 hours. The solubility was determined by gravimetric evaluation of the solid residue.
# [2] = at 50% to 60% relative humidity; listed as crystalline salt of 5-methyl-(6S)-tetrahydrofolic acid and L-methionine ethyl es
# [3] = at room temperature; calcium salt; cited from earlier work
# [4] = Dynamic water vapor sorption (DVS) experiment; type: physicochemical; conditions: FIG. 3; for change of relative sample mass during DVS test: RH program 50→20→75→50%, 5% per hour; for change in water content: relative humidity range between 20% and 75%
# Method: DVS measurements are typically performed with an SPS11-100n “Sorptions Prufsystem” from ProUmid (formerly “Projekt Messtechnik”), August-Nagel-Str. 23, 89079 Ulm (Germany).
# 22 mg of the salt of 5-methyl-(6S)-tetrahydrofolic acid with L-phenylalanine ethyl ester Form B according to Example 2 was weighed into an aluminum sample pan for DVS measurement. A DVS measurement was performed. For relative humidity (RH) scans, change rates of 5% per hour were used. The sample pan was placed into the instrument and a defined relative humidity change program was started according to the following steps: • (1) Maintained RH for 2 hours at 50%, then • (2) scanned RH from 50→20% at a rate of 5% per hour and maintained RH at 20% for 10 hours, then • (3) scanned RH from 20→75% at a rate of 5% per hour and maintained RH at 75% for 10 hours, then • (4) scanned RH from 75→50% RH at a rate of 5% per hour and maintained RH at 50% for two hours.
compound,measurement,setting,value
5-methyl-(6S)-tetrahydrofolic acid L-methionine ethyl ester salt,kinetic solubility expressed as 5-methyl-(6S)-tetrahydrofolic acid,"[1]; at r.t., corresponds to mg/ml of 5-methyl-(6S)-tetrahydrofolic acid",greater than 18 mg/ml
5-methyl-(6S)-tetrahydrofolic acid L-methionine ethyl ester salt [Example 7],water content,[2],below 1%
5-methyl-(6S)-tetrahydrofolic acid L-methionine ethyl ester salt [Example 8],water content,[2],about 5%
5-methyl-(6S)-tetrahydrofolic acid calcium salt [calcium salt (Form I)],aqueous solubility,[3],about 10 mg/ml
5-methyl-(6S)-tetrahydrofolic acid calcium salt [calcium salt (Form III)],aqueous solubility,[3],about 2.5 mg/ml
CCOC(=O)[C@@H](N)Cc1ccccc1.CCOC(=O)[C@@H](N)Cc1ccccc1.CN1c2c([nH]c(N)nc2=O)NC[C@@H]1CNc1ccc(C(=O)N[C@@H](CCC(=O)O)C(=O)O)cc1 [5-methyl-(6S)-tetrahydrofolic acid L-phenylalanine ethyl ester 1:2 salt],amount dissolved within one minute in 2.00 ml water,[1],11.3 mg
same,improvement of kinetic solubility versus calcium salt metastable Form I,[1]; versus the known (metastable Form I) of the calcium salt,about 50%
same,change of relative sample mass during DVS test,[4],less than 0.3%
same,change in water content,[4],less than 0.3%
"CN1c2c(nc(N)[nH]c2=O)NC[C@@H]1CNc1ccc(C(=O)N[C@@H](CCC(=O)O)C(=O)O)cc1 [5-methyl-(6S)-tetrahydrofolic acid calcium salt, reference compound]",amount dissolved within one minute in 2.00 ml water,[1],9.0 mg
same,kinetic solubility (mg of 5-methyl-(6S)-tetrahydrofolic acid per mL),[1],9.0 mg per mL
same,solubility kinetic at 1 min,"[1]; water, thermodynamic from solid",< 10000 µg/mL
same,change of relative sample mass during DVS test,[4],about 3%
same,change in water content,[4],about 3%
"CCOC(=O)[C@@H](N)Cc1ccccc1.CCOC(=O)[C@@H](N)Cc1ccccc1.CN1c2c([nH]c(N)nc2=O)NC[C@@H]1CNc1ccc(C(=O)N[C@@H](CCC(=O)O)C(=O)O)cc1 [Example 4, 5-methyl-(6S)-tetrahydrofolic acid L-phenylalanine ethyl ester 1:2 salt]",kinetic solubility (mg of 5-methyl-(6S)-tetrahydrofolic acid per mL),[1],11.3 mg per mL
